In patent US11648254B2 (Kumquat Biosciences Inc., priority 2021, dated 2023):
Like-named read-outs stand apart in the source and are kept apart here.

Assays:
[1] = system: MIA PaCa-2 cells (K-Ras G12C); test: Ras-SOS cellular growth inhibition assay (CellTiter-Glo, 3D); type: cell-based
Procedure, shortened: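 Growth read by CellTiter-Glo luminescence about 5 days after dosing with 3-fold dilutions (9 points), added one day post-seeding. Cells: MIA PaCa-2, 3D culture on ultra-low-attachment surface, medium DMEM/Ham's F12 plus 10% FCS and 2.5% horse serum; IC50 by four-parameter fit.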

[2] = In vitro plasma protein binding (PPB); type: in vitro ADME; settings: percentage of free/unbound compound
SOS1 = SOS1 (Homo sapiens (Human), UniProt Q07889); test: Ras-SOS interaction assay (HTRF); type: biochemical
SOS1, sequence (Q07889 564-1049): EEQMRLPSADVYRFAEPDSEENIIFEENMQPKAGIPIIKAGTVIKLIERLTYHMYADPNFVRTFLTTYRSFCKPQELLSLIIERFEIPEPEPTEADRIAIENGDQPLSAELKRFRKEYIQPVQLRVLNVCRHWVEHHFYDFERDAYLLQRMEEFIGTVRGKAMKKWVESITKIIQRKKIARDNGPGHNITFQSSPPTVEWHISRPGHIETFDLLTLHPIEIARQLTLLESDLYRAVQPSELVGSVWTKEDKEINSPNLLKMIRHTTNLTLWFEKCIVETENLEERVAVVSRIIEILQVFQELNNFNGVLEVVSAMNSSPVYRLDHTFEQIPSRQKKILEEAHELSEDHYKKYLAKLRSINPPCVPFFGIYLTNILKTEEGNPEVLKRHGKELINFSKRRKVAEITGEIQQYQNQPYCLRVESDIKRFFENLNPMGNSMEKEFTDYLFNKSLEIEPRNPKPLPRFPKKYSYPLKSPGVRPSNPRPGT

[3] = system: NCI-H1975 cells (EGFR T790M L858R); test: EGFR-SOS cellular inhibition assay (CellTiter-Glo, 3D); type: cell-based
[4] = Homo sapiens, MIA PaCa-2, 120 h, MIA PaCa-2, 3D proliferation, about 5 days, read-out: Bio-Cell-Prolif-3D (MiaPaca2 IC50)
[5] = Homo sapiens, MIA PaCa-2, MIA PaCa-2, read-out: IC50 in inhibiting MIA PaCa-2 cell growth
[6] = K-RasG13D utilized, read-out: IC50 inhibition of SOS
[7] = K-RasG13D, read-out: IC50 value against SOS1
[8] = Homo sapiens, 120 h, NCI-H1975, 3D proliferation, about 5 days, read-out: Bio-Cell-Prolif-3D (H1975 IC50)
[9] = Homo sapiens, NCI-H1975, EGFR T790M L858R, read-out: IC50 in inhibiting growth of NCI-H1975 cell line

Row | SMILES | IC50 [1, 4] [nM] | IC50 [1, 5] [nM] | DMPK-invitro-PPB (Mouse Unbound) [%] [2] [%] | IC50 (SOS1; [6]) [nM] | IC50 (SOS1; [7]) [nM] | IC50 [3, 8] [nM] | IC50 [3, 9] [nM] | IC50 ([1]; MIA PaCa-2, 3D proliferation, about 5 days, read-out: Bio-Cell-Prolif-3D (MiaPaca2 IC50)) [nM] | IC50 ([3]; NCI-H1975, 3D proliferation, about 5 days, read-out: Bio-Cell-Prolif-3D (H1975 IC50)) [nM] | IC50 ([3]; NCI-H1975, EGFR T790M L858R, read-out: IC50 in inhibiting growth of NCI-H1975 cell line) [nM]
1 | COc1nc2nc(C)nc(N[C@H](C)c3cccc(C(F)F)c3F)c2cc1N1CCN(C(C)C)CC1 [Compound 109, (R)-N-(1-(3-(difluoromethyl)-2-fluorophenyl)ethyl)-6-(4-isopropylpiperazin-1-yl)-7-methoxy-2-methylpyrido[2,3-d] pyrimidin-4-amine] | ≤ 1000 | < 500 | 3.51 | < 100 | < 50 | ≤ 1000 | < 500 |  |  | 
2 | COc1nc2nc(C)nc(N[C@H](C)c3cccc(C(C)(F)F)c3F)c2cc1C1CCS(=O)(=O)CC1 [Compound 150, (R)-4-(4-((1-(3-(1,1-difluoroethyl)-2-fluorophenyl)ethyl)amino)-7-methoxy-2-methylpyrido[2,3-d]pyrimidin-6-yl)tetrahydro-2H-thiopyran 1,1-dioxide] | ≤ 1000 | < 500 | 2.65 |  | < 50 | ≤ 1000 | < 500 |  |  | 
3 | COc1nc2nc(C)nc(N[C@H](C)c3cccc(C(F)(F)C(C)(C)O)c3F)c2cc1N1CCN(C(C)C)CC1 [Compound 322, (R)-1,1-difluoro-1-(2-fluoro-3-(1-((6-(4-isopropylpiperazin-1-yl)-7-methoxy-2-methylpyrido[2,3-d]pyrimidin-4-yl)amino)ethyl)phenyl)-2-methylpropan-2-ol] | ≤ 1000 | < 500 | 6.33 | < 100 | < 50 | ≤ 1000 | < 500 |  |  | 
4 | COc1nc2ncnc(N[C@H](C)c3cccc(C(F)(F)F)c3F)c2cc1N1CCS(=O)(=O)CC1 [Compound 308, (R)-4-(4-((1-(2-fluoro-3-(trifluoromethyl)phenyl)ethyl)amino)-7-methoxypyrido[2,3-d]pyrimidin-6-yl)thiomorpholine 1,1-dioxide] | ≤ 1000 | < 500 | 2.91 | < 100 | < 50 | ≤ 1000 | < 500 |  |  | 
5 | CCN1CCC(c2cc3c(N[C@H](C)c4cccc(C(F)(F)F)c4C)ncnc3nc2OC)CC1 [Compound 353, (R)-6-(1-ethylpiperidin-4-yl)-7-methoxy-N-(1-(2-methyl-3-(trifluoromethyl)phenyl)ethyl)pyrido [2,3-d]pyrimidin-4-amine] | ≤ 1000 | < 500 | 0.74 | < 100 | < 50 | ≤ 1000 | < 500 |  |  | 
6 | COc1nc2nc(C)nc(N[C@H](C)c3cccc(C(F)F)c3F)c2cc1N1CCS(=O)(=O)CC1 [Compound 131, (R)-4-(4-((1-(3-(difluoromethyl)-2-fluorophenyl)ethyl)amino)-7-methoxy-2-methylpyrido[2,3-d]pyrimidin-6-yl)thiomorpholine 1,1-dioxide] | ≤ 1000 | < 500 | 4.01 | < 100 | < 50 | ≤ 1000 | < 500 |  |  | 
7 | COc1nc2ncnc(N[C@H](C)c3cccc(C(F)(F)F)c3C)c2cc1C1CCN(C(C)C)CC1 [Compound 348, (R)-6-(1-isopropylpiperidin-4-yl)-7-methoxy-N-(1-(2-methyl-3-(trifluoromethyl)phenyl)ethyl)pyrido [2,3-d]pyrimidin-4-amine] | ≤ 1000 |  | 1.03 | < 100 | < 50 | ≤ 1000 | < 500 |  |  | 
8 | COc1nc2ncnc(N[C@H](C)c3cccc(C(F)F)c3F)c2cc1C1CCS(=O)(=O)CC1 [Compound 146, (R)-4-(4-((1-(3-(difluoromethyl)-2-fluorophenyl)ethyl)amino)-7-methoxypyrido[2,3-d]pyrimidin-6-yl)tetrahydro-2H-thiopyran 1,1-dioxide] |  | < 500 | 3.58 | < 100 | < 50 |  |  | ≤ 1000 | ≤ 1000 | < 500

Now from value to molecule:

Row | IC50 [1, 4] [nM] | IC50 [1, 5] [nM] | DMPK-invitro-PPB (Mouse Unbound) [%] [2] [%] | IC50 (SOS1; [6]) [nM] | IC50 (SOS1; [7]) [nM] | IC50 [3, 8] [nM] | IC50 [3, 9] [nM] | IC50 ([1]; MIA PaCa-2, 3D proliferation, about 5 days, read-out: Bio-Cell-Prolif-3D (MiaPaca2 IC50)) [nM] | IC50 ([3]; NCI-H1975, 3D proliferation, about 5 days, read-out: Bio-Cell-Prolif-3D (H1975 IC50)) [nM] | IC50 ([3]; NCI-H1975, EGFR T790M L858R, read-out: IC50 in inhibiting growth of NCI-H1975 cell line) [nM] | SMILES
9 | ≤ 1000 | < 500 | 0.91 | < 100 | < 50 | ≤ 1000 | < 500 |  |  |  | COc1nc2ncnc(N[C@H](C)c3cccc(C(F)(F)F)c3C)c2cc1N1CCN(C(C)C)CC1 [Compound 376, (R)-6-(4-isopropylpiperazin-1-yl)-7-methoxy-N-(1-(2-methyl-3-(trifluoromethyl)phenyl)ethyl)pyrido [2,3-d]pyrimidin-4-anune]
10 | ≤ 1000 | < 500 | 0.41 | < 100 | < 50 | ≤ 1000 | < 500 |  |  |  | COc1nc2nc(C)nc(N[C@H](C)c3cccc(C(F)(F)F)c3F)c2cc1N1CCN(C(C)C)CC1 [Compound 211, (R)-N-(1-(2-fluoro-3-(trifluoromethyl)phenyl)ethyl)-6-(4-isopropylpiperazin-1-yl)-7-methoxy-2-methylpyrido[2,3-d]pyrimidin-4-amine]
11 |  |  | 0.065 | < 100 | < 50 |  |  |  |  |  | COc1nc2nc(C)nc(N[C@H](C)c3cccc(C(F)(F)F)c3C)c2cc1C1CCN(C2CCOCC2)CC1 [Compound 358, (R)-7-methoxy-2-methyl-N-(1-(2-methyl-3-(trifluoromethyl)phenyl)ethyl)-6-(1-(tetrahydro-2H-pyran-4-yl)piperidin-4-yl)pyrido [2,3-d]pyrimidin-4-amine]
12 |  |  | 5.15 | < 100 |  |  | < 500 |  |  |  | COc1nc2nc(C)nc(N[C@H](C)c3cccc(C(F)F)c3F)c2cc1N1CCN(C)CC1 [Compound 103, (R)—N-(1-(3-(difluoromethyl)-2-fluorophenyl)ethyl)-7-methoxy-2-methyl-6-(4-methylpiperazin-1-yl)pyrido[2,3-d]pyrimidin-4-amine]
13 | ≤ 1000 |  | 15.32 | < 100 | < 50 | ≤ 1000 | < 500 |  |  |  | COc1nc2ncnc(N[C@H](C)c3cccc(C(F)F)c3F)c2cc1N1CCS(=O)(=O)CC1 [Compound 339, (R)-4-(4-((1-(3-(difluoromethyl)-2-fluorophenyl)ethyl)amino)-7-methoxypyrido[2,3-d]pyrimidin-6-yl)thiomorpholine 1,1-dioxide]
14 | ≤ 1000 | < 500 | 0.45 |  | < 50 | ≤ 1000 | < 500 |  |  |  | COc1nc2ncnc(N[C@H](C)c3cccc(C(F)(F)F)c3C)c2cc1C1CCN(C2CCOCC2)CC1 [Compound 374, (R)-7-methoxy-N-(1-(2-methyl-3-(trifluoromethyl)phenyl)ethyl)-6-(1-(tetrahydro-2H-pyran-4-yl)piperidin-4-yl)pyrido[2,3-d]pyrimidin-4-amine]
15 | ≤ 1000 | < 500 | 0.31 |  | < 50 | ≤ 1000 | < 500 |  |  |  | COc1nc2nc(C)nc(N[C@H](C)c3cccc(C(F)(F)F)c3C)c2cc1C1CCS(=O)(=O)CC1 [Compound 118, (R)-4-(7-methoxy-2-methyl-4-((1-(2-methyl-3-(trifluoromethyl)phenyl)ethyl)amino)pyrido[2,3-d]pyrimidin-6-yl)tetrahydro-2H-thiopyran 1,1-dioxide]
16 | ≤ 1000 | < 500 | 12.8 | < 100 | < 50 | ≤ 1000 | < 500 |  |  |  | COc1nc2nc(C)nc(N[C@H](C)c3cccc(C(F)(F)C(C)(C)O)c3)c2cc1N1CCN(C(C)C)CC1 [Compound 325, (R)-1,1-difluoro-1-(3-(1-((6-(4-isopropylpiperazin-1-yl)-7-methoxy-2-methylpyrido[2,3-d]pyrimidin-4-yl)amino)ethyl)phenyl)-2-methylpropan-2-ol]
17 | ≤ 1000 | < 500 | 0.39 | < 100 | < 50 | ≤ 1000 | < 500 |  |  |  | COc1nc2nc(C)nc(N[C@H](C)c3cccc(C(F)(F)F)c3F)c2cc1C1CCN(C(C)C)CC1 [Compound 287, (R)-N-(1-(2-fluoro-3-(trifluoromethyl)phenyl)ethyl)-6-(1-isopropylpiperidin-4-yl)-7-methoxy-2-methylpyrido[2,3-d]pyrimidin-4-amine]
18 | ≤ 1000 | < 500 | 2.56 | < 100 | < 50 | ≤ 1000 | < 500 |  |  |  | COc1nc2nc(C)nc(N[C@H](C)c3cccc(C(F)F)c3F)c2cc1C1CCS(=O)(=O)CC1 [Compound 102, (R)-4-(4-((1-(3-(difluoromethyl)-2-fluorophenyl)ethyl)amino)-7-methoxy-2-methylpyrido[2,3-d]pyrimidin-6-yl)tetrahydro-2H-thiopyran 1,1-dioxide]
